According to patent US8951527B2, “Radioprotectants targeting thrombospondin-1 and CD47” (The United States of America, as represented by the …, priority 2008, dated 2015):
Entries after “also recorded” stand apart in the source; their conditions may differ.

What was measured:
HUVEC = HUVEC proliferation post-radiation (BrdU incorporation); assay type: cell-based, human; details: treated 48 hours before 10 Gy, over 1 week (FIG. 14)
Protocol: FIG. 14. TSP1 and CD47 antibodies or antisense suppression of CD47 maintain proliferation of irradiated HUVEC. HUVEC were plated in 96-well plates in growth medium and treated with CD47 morpholino (FIG. 14A; *p<0.05, #p<0.01) TSP1, or CD47 antibodies (FIG. 14B; *p<0.05, #p<0.01) and exposed to 10 Gy irradiation 48 hours later. Cell proliferation at the indicated times post-radiation was determined by intracellular BrdU incorporation. Experiments were repeated 3 times, and results presented as the mean±SD.
FIG. 15. HUVEC protected by radioprotective agents are both viable and proliferate at a better rate than untreated cells in culture. Proliferation was assessed by quantifying incorporation of bromodeoxyuridine (BrdU) into newly synthesized DNA using a BrdU Cell Proliferation Assay. HUVEC were seeded into 96 well plates for 24 hours at 37° C., then treated with either antibody A6.1 or B6H12 or peptide 7N3. The treated cells were irradiated at 40 Gy 1 hour later. Control and irradiated plates were assayed for BrdU uptake over 96 hours post-radiation. The assay was performed according to the manufacturer's protocol, and the plates were read at 420 nm.
Cell proliferation assay: Proliferation was assessed by quantifying incorporation of bromodeoxyuridine (BrdU) into newly synthesized DNA using a BrdU Cell Proliferation Assay (Calbiochem, La Jolla, Calif.). Primary murine wild type, TSP1, TSP2, and CD47 null lung endothelial cells were seeded into 96 well plates at 5×10^4 cells/well density. After 24 hours incubation at 37° C. treatment groups were irradiated at 40 Gy. Control and irradiated plates were assayed for BrdU uptake over 24 hours starting at 48 to 168 hours post-radiation. The assay was performed according to the manufacturer's protocol, and the plates were read at 420 nm.
Proliferative capacities were also determined in endothelial cells exposed to high doses of radiation of 40 Gy. […] The assay was performed according to the manufacturer's protocol, and the plates were read at 420 nm.

SCC VII = SCC VII squamous cell carcinoma tumor growth after irradiation in C3H mice; assay type: in vivo, mouse; details: IP morpholino 48 hours before irradiation
Protocol: (§1) FIG. 19. CD47 suppression enhances re-growth delay in irradiated syngeneic B16 melanoma and squamous cell carcinoma tumors but increases radioresistance of B16 cells in vitro. C57BL/6 mice were injected with 1×10^6 B16 mouse melanoma cells into their right hindlimbs. Five days later, the mice were randomized into 4 groups (12 mice in each group) where they either received injections of CD47 morpholino (10 μM) in sterile PBS, PBS, or no injection. The two groups receiving injections were then subjected to radiation (10 Gy) to the effected hindlimb 48 hours later. The other two groups served as controls and consisted of tumor alone or tumor subjected to only the morpholino. Tumors were followed post-radiation for 30 days, measuring their volume every 6 days (FIG. 19A). Results are presented as the mean±SD of 12 mice in each treatment group and are representative of 3 independent studies. […] Cell (mitochondrial) viability was measured 48 hours post radiation using the MTT assay.
FIG. 20. […] Tumor growth was assessed as above. […]
In other experiments, C3H mice were injected in the right hindlimb with either 1.5×10^5 SCC VII cells, and tumors were allowed to establish for 1 week. […] The mice were observed and tumor size determined two to three times a week by the same individual until lesion size necessitated animal euthanasia.

B16F10 melanoma cells = assay: B16F10 melanoma cell viability after irradiation in vitro; assay type: cell-based, mouse; details: 7N3 1 hour or morpholino 48 hours before 10 Gy, versus untreated cells
Protocol: as §1, with “19A).” for “19A). Results are presented as the mean±SD of 12 mice in each treatment group and are representative of 3 independent studies.”
Cell Viability Assay. […] Cell viability was determined using the CellTiter 96 Aqueous One Solution cell proliferation assay (Promega, Madison, Wis.) as per the manufacturer's instructions and absorbance at 490 nm was determined using an MR580 Microelisa AutoReader (Dynatech, Alexandria, Va.). […]
Irradiation of cells. […] The dose rate at 50 cm from the x-ray source was 242 cGy/minute, as determined by multiple thermo luminescent dosimeter readings.

Sequence: CGTCACAGGCAGGACCCACTGCCCA (all phosphorodiamidate morpholino (PMO)) [CD47 morpholino, CD47 targeting morpholino oligonucleotide]
- proliferation (BrdU incorporation / DNA synthesis) after 10 Gy (HUVEC): maintained proliferation
- tumor growth delay, intraperitoneal versus local administration (SCC VII): as effective as local delivery; also recorded: equivalent delay in tumor growth
- cell viability after 10 Gy (B16F10 melanoma cells): mild radioprotective effect
